Our source for the IC50 values is patent publication US10077288B2, “Hydroxystatin derivatives for the treatment of arthrosis” (Merck Patent GmbH, priority 2012, dated 2018).

T1 sequence (P07339 65-161 limits assumed): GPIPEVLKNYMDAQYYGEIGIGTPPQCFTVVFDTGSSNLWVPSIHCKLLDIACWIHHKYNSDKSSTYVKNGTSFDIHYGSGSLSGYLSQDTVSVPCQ
T1 sequence (P07339 169-412 limits assumed): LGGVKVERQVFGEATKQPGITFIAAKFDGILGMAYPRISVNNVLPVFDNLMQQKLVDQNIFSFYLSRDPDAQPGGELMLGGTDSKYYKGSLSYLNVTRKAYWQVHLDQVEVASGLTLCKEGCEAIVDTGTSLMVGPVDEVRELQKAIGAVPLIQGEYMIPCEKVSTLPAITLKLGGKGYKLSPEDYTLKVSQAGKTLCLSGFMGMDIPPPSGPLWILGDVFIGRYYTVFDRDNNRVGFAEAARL

The assay has as its target T1, cathepsin D isolated from the human liver (Homo sapiens, UniProt P07339).
T1 construct: cathepsin D isolated from the human liver (Sigma-Aldrich); purchased Sigma-Aldrich; host or cells: human liver (tissue-derived, not recombinant)
The assay is described as follows: In-vitro fluorescence assay for identification of cathepsin D inhibitors. Type of assay: biochemical. Particulars: human liver cathepsin D 1.4 nM, pH 5.5; read-out: CatD assay IC50-(M). On the procedure:
EXAMPLE 4: IN-VITRO FLUORESCENCE ASSAY FOR IDENTIFICATION OF CATHEPSIN D INHIBITORS
In order to identify modulators of cathepsin D activity, a continuous enzymatic test was carried out with a synthetic peptide which carries a fluorescent group (MCA=(7-methoxycoumarin-4-yl)acetyl) which is quenched by energy transfer from a Dpn (2,4 dinitrophenyl) group on the same molecule, in Greiner 384-well nb microtitre plates. Cleavage of the peptidic substrate by cathepsin D causes an increase in the fluorescence intensity. In order to determine the efficacy of substances, the time-dependent increase in the fluorescence intensity in the presence of the substance was compared with the time-dependent increase in fluorescence in the absence of substances. The reference substance used was pepstatin A (Sigma-Aldrich). The substrate used was MCA-GKPILFFRLK(Dnp)d-R—NH2 (Enzo Life Sciences, Lörrach). The enzyme employed was cathepsin D isolated from the human liver (Sigma-Aldrich) in a final concentration of 1.4 nM. The test was carried out in 100 mM sodium acetate buffer, 1.25% (v/v) of DMSO, 0.25% (w/v) of Chaps, pH 5.5. 2 μl of each substance solution with serially diluted substance concentration were added to in each case 4 μl of cathepsin D solution and incubated at room temperature for 10 min. The reaction was started by addition of 2 μl of substrate solution (final concentration 5 μM). After carrying out a starting-point fluorescence measurement (excitation wavelength 340 nm/emission wavelength 450 nm) using an Envision multilabel reader (Perkin Elmer), the reaction was incubated at room temperature for 60 min. The amount of peptide fragment cleaved off during the reaction time was subsequently measured by determination of the increase in the fluorescence intensity at 450 nm (excitation wavelength 340 nm).
On to `CC[C@H](C)[C@H](NC(=O)C[C@H](O)[C@H](Cc1ccccc1)NC(=O)[C@@H](NC(=O)Cc1cccc2ccccc12)C(C)C)C(=O)N[C@H](C(=O)O)C(C)C` [Compound 30, (S)-2-((2S,3S)-2-{(3S,4S)-3-hydroxy-4-[(S)-3-methyl-2-(2-naphthalen-1-ylacetylamino)butyrylamino]-5-phenylpentanoylamino}-3-methylpentanoylamino)-3-methylbutyric acid], for which the IC50 was determined as 8.5e-08 M.
With `CC[C@H](C)[C@H](NC(=O)C[C@H](O)[C@H](Cc1ccccc1)NC(=O)[C@@H](NC(=O)Cc1ccc2ccccc2c1)C(C)C)C(=O)N[C@H](C(=O)O)C(C)C` [Compound 25, (S)-2-((2S,3S)-2-{(3S,4S)-3-hydroxy-4-[(S)-3-methyl-2-(2-naphthalen-2-ylacetylamino)butyrylamino]-5-phenylpentanoylamino}-3-methylpentanoylamino)-3-methylbutyric acid], the half-maximal inhibitory concentration (IC50) is 8.1e-09 M.
For the compound `CC[C@H](C)[C@H](NC(=O)C[C@H](O)[C@H](Cc1ccccc1)NC(=O)[C@@H](NC(=O)Cc1ccc(OC)c(OC)c1)C(C)C)C(=O)N[C@H](C(=O)O)C(C)C` [Compound 14, (S)-2-[(2S,3S)-2-((3S,4S)-4-{(S)-2-[2-(3,4-dimethoxyphenyl)acetylamino]-3-methylbutyrylamino}-3-hydroxy-5-phenylpentanoylamino)-3-methylpentanoylamino]-3-methylbutyric acid], the IC50 was determined as 1.5e-07 M.
For `CC[C@H](C)[C@H](NC(=O)C[C@H](O)[C@H](Cc1ccccc1)NC(=O)[C@@H](NC(=O)[C@H](CC(C)C)NC(=O)CC(C)C)C(C)C)C(=O)NC(C)(C)CCO` [Compound 49, N-[(1S,2S)-1-(3-hydroxy-1,1-dimethylpropylcarbamoyl)-2-methylbutyl]-(3S,4S)-3-hydroxy-4-{(S)-3-methyl-2-[(S)-4-methyl-2-(3-methylbutyrylamino)pentanoylamino]butyrylamino}-5-phenylpentanamide], the IC50 was 2.1e-10 M.
For the compound `CC[C@H](C)[C@H](NC(=O)C[C@H](O)[C@H](Cc1ccccc1)NC(=O)[C@@H](NC(=O)Cc1ccccc1OC)C(C)C)C(=O)N[C@H](C(=O)OCc1ccccc1)C(C)C` [Compound 22, benzly (S)-2-[(2S,3S)-2-((3S,4S)-3-hydroxy-4-{(S)-2-[2-(2-methoxy-phenyl)acetylamino]-3-methylbutyrylamino}-5-phenylpentanoylamino)-3-methylpentanoylamino]-3-methylbutyrate], the concentration for half-maximal inhibition (IC50) stood at 2.1e-07 M.
`CC[C@H](C)[C@H](NC(=O)C[C@H](O)[C@H](Cc1ccccc1)NC(=O)[C@@H](NC(=O)C(c1ccccc1)c1ccccc1)C(C)C)C(=O)N[C@H](C(=O)OCc1ccccc1)C(C)C` [Compound 32, benzyl (S)-2-{(2S,3S)-2-[(3S,4S)-4-((S)-2-diphenylacetylamino-3-methylbutyrylamino)-3-hydroxy-5-phenylpentanoylamino]-3-methylpentanoylamino}-3-methylbutyrate]: the concentration for half-maximal inhibition (IC50) is 3.2e-07 M.
Turning to `CC[C@H](C)[C@H](NC(=O)C[C@H](O)[C@H](Cc1ccccc1)NC(=O)[C@@H](NC(=O)Cc1cccc(Oc2ccccc2)c1)C(C)C)C(=O)N[C@H](C(=O)O)C(C)C` [Compound 27, (S)-2-[(2S,3S)-2-((3S,4S)-3-hydroxy-4-{(S)-3-methyl-2-[2-(3-phenoxyphenyl)acetylamino]butyrylamino}-5-phenylpentanoylamino)-3-methylpentanoylamino]-3-methylbutyric acid], the IC50 was 1.2e-08 M.
For the compound `CC[C@H](C)[C@H](NC(=O)C[C@H](O)[C@H](Cc1ccccc1)NC(=O)[C@@H](NC(=O)c1cccc(-c2ccccc2)c1)C(C)C)C(=O)N[C@H](C(=O)O)C(C)C` [Compound 31, (S)-2-[(2S,3S)-2-((3S,4S)-4-{(S)-2-[(biphenyl-3-carbonyl)amino]-3-methylbutyrylamino}-3-hydroxy-5-phenylpentanoylamino)-3-methylpentanoylamino]-3-methylbutyric acid], the IC50 is 1.6e-07 M.
`CCOc1cccc(CC(=O)N[C@H](C(=O)N[C@@H](Cc2ccccc2)[C@@H](O)CC(=O)N[C@H](C(=O)N[C@H](C(=O)O)C(C)C)[C@@H](C)CC)[C@@H](C)CC)c1` [Compound 36, (S)-2-[(2S,3S)-2-((3S,4S)-3-hydroxy-4-{(S)-methyl-1-(S)-2-[2-(3-ethoxyphenyl)acetylamino]-3-oxopentylamino}-5-phenylpentanoylamino)-3-methylpentanoylamino]-3-methylbutyric acid]: the half-inhibitory concentration (IC50) worked out at 4.3e-08 M.
On to `CC[C@H](C)[C@H](NC(=O)C[C@H](O)[C@H](Cc1ccccc1)NC(=O)[C@@H](NC(=O)[C@@H](O)c1ccccc1)C(C)C)C(=O)N[C@H](C(=O)O)C(C)C` [Compound 37, (S)-2-((2S,3S)-2-{(3S,4S)-3-hydroxy-4-[(S)-2-((S)-2-hydroxy-2-phenylacetylamino)-3-methylbutyrylamino]-5-phenylpentanoylamino}-3-methylpentanoylamino)-3-methylbutyric acid], for which the IC50 is 3.1e-07 M.
The same measure for `CC[C@H](C)[C@H](NC(=O)C[C@H](O)[C@H](Cc1ccccc1)NC(=O)[C@@H](NC(=O)Cc1cccc2ccccc12)C(C)C)C(=O)N[C@H](C(=O)OCc1ccccc1)C(C)C` [Compound 21, benzly (S)-2-((2S,3S)-2-{(3S,4S)-3-hydroxy-4-[(S)-3-methyl-2-(2-naphthalen-1-ylacetylamino)butyrylamino]-5-phenylpentanoylamino}-3-methylpentanoylamino)-3-methylbutyrate]: 1.2e-06 M.
Turning to `CC[C@H](C)[C@H](NC(=O)C[C@H](O)[C@H](Cc1ccccc1)NC(=O)[C@@H](NC(=O)COc1ccc(C)c(C)c1)C(C)C)C(=O)N[C@H](C(=O)O)C(C)C` [Compound 29, (S)-2-[(2S,3S)-2-((3S,4S)-4-{(S)-2-[2-(3,4-dimethylphenoxy)acetylamino]-3-methylbutyrylamino}-3-hydroxy-5-phenylpentanoylamino)-3-methylpentanoylamino]-3-methylbutyric acid], the IC50 turned out to be 1e-07 M.
Consider `CC[C@H](C)[C@H](NC(=O)C[C@H](O)[C@H](Cc1ccccc1)NC(=O)[C@@H](NC(=O)CCCc1ccccc1)C(C)C)C(=O)N[C@H](C(=O)OCc1ccccc1)C(C)C` [Compound 2, benzly (S)-2-((2S,3S)-2-{(3S,4S)-3-hydroxy-4-[(S)-3-methyl-2-(4-phenylbutyrylamino)butyrylamino]-5-phenylpentanoylamino}-3-methylpentanoylamino)-3-methylbutyrate], for which the IC50 was 7.1e-08 M.
Take `CCC(CC)NC(=O)[C@@H](NC(=O)C[C@H](O)[C@H](Cc1ccccc1)NC(=O)[C@@H](NC(=O)[C@H](CC(C)C)NC(=O)CC(C)C)C(C)C)C(C)C` [Compound 47, N—[(S)-1-(1-ethylpropylcarbamoyl)-2-methylpropyl]-(3S,4S)-3-hydroxy-4-{(S)-3-methyl-2-[(S)-4-methyl-2-(3-methylbutyrylamino)-pentanoylamino]butyrylamino}-5-phenylpentanamide]: the IC50 amounted to 6.5e-10 M.
For `CC[C@H](C)[C@H](NC(=O)C[C@H](O)[C@H](Cc1ccccc1)NC(=O)[C@@H](NC(=O)C(CC)(CC)CC)C(C)C)C(=O)N[C@H](C(=O)O)C(C)C` [Compound 38, (S)-2-((2S,3S)-2-{(3S,4S)-4-[(S)-2-(2,2-diethylbutyrylamino)-3-methylbutyrylamino]-3-hydroxy-5-phenylpentanoylamino}-3-methylpentanoylamino)-3-methylbutyric acid], the half-maximal inhibitory concentration (IC50) came out at 7e-06 M.
As to `CC[C@H](C)[C@H](NC(=O)C[C@H](O)[C@H](Cc1ccccc1)NC(=O)[C@@H](NC(=O)Cc1ccc2ccccc2c1)C(C)C)C(=O)N[C@H](C(=O)OCc1ccccc1)C(C)C` [Compound 16, benzly (S)-2-((2S,3S)-2-{(3S,4S)-3-hydroxy-4-[(S)-3-methyl-2-(2-naphthalen-2-ylacetylamino)butyrylamino]-5-phenylpentanoylamino}-3-methylpentanoylamino)-3-methylbutyrate], the concentration for half-maximal inhibition (IC50) came out at 1.5e-07 M.
Consider `CC[C@H](C)[C@H](NC(=O)C[C@H](O)[C@H](Cc1ccccc1)NC(=O)[C@@H](NC(=O)[C@H](CC(C)C)NC(=O)CC(C)C)C(C)C)C(=O)NC1CCCC1` [Compound 46, N-((1S,2S)-1-cyclopentylcarbamoyl-2-methylbutyl)-(2S,5S)-3-hydroxy-4-{(S)-3-methyl-2-[(S)-4-methyl-2-(3-methylbutyrylamino)-pentanoylamino]butyrylamino}-5-phenylpentanamide], for which the IC50 was determined as 1.8e-09 M.
